Data on 13 compounds can be found in ChEMBL document CHEMBL5143641, “Expanding the Chemical Diversity of Fasamycin Via Genome Mining and Biocatalysis” (2022).

Common to all, as to format: functional
For one assay, the system named is Bacillus subtilis. Briefly: Antimicrobial activity against Bacillus subtilis ATCC 23857 assessed as inhibition of microbial growth incubated for 16 hrs under shaking condition by microdilution assay. In general terms: Dilution methods test growth across graded concentrations, often in twofold steps.
The test system of a further assay is Staphylococcus aureus. Briefly: Antimicrobial activity against Staphylococcus aureus ATCC 51650 assessed as inhibition of microbial growth incubated for 16 hrs under shaking condition by microdilution assay.
For a further assay, the system named is Escherichia coli. Briefly: Antimicrobial activity against Escherichia coli ATCC 25922 assessed as inhibition of microbial growth incubated for 16 hrs under shaking condition by microdilution assay.
The test system of a further assay is Candida albicans. The assay is described as follows: Antimicrobial activity against Candida albicans ATCC 10231 assessed as inhibition of microbial growth incubated for 16 hrs under shaking condition by microdilution assay.

Where only a bound is given, the exact number is not on record here.

On to `COc1cc(C)c(-c2cc(OC)cc3cc4c(c(O)c23)C(=O)c2c(O)cc(OC)cc2C4(C)C)c(O)c1`, for which the MIC in the assay on Bacillus subtilis, in the assay on Staphylococcus aureus, in the assay on Escherichia coli and in the assay on Candida albicans was more than 100 µg/mL throughout.

Consider `COc1cc(O)c2c(c1)C(C)(C)c1cc3cc(O)cc(-c4c(O)cc(OC)c(Br)c4C)c3c(O)c1C2=O`, for which the MIC (commonly the lowest concentration found to suppress growth) in the assay on Bacillus subtilis was 1.6 µg/mL; in the assay with Staphylococcus aureus, 3.1 µg/mL; in the assay on Escherichia coli it was more than 100 µg/mL; in the assay on Candida albicans it was more than 100 µg/mL.

For the compound `COc1cc(O)c(-c2cc(O)c(Br)c3cc4c(c(O)c23)C(=O)c2c(O)cc(O)cc2C4(C)C)c(C)c1Br`, the MIC in the assay on Bacillus subtilis is 1.6 µg/mL; in the assay with Staphylococcus aureus it was 1.6 µg/mL; in the assay with Escherichia coli it was more than 100 µg/mL; in the assay on Candida albicans it was more than 100 µg/mL.

On to `NC[C@H]1O[C@H](O[C@H]2[C@H](O)[C@@H](O[C@H]3O[C@H](CO)[C@@H](O)[C@H](N)[C@H]3O)[C@H](N)C[C@@H]2N)[C@H](O)[C@@H](O)[C@@H]1O` [KANAMYCIN], for which the MIC is 0.8 µg/mL in the assay with Bacillus subtilis and 1.6 µg/mL in the assay with Staphylococcus aureus.

Consider `COc1cc(O)c(-c2cc(O)cc3cc4c(c(O)c23)C(=O)c2c(O)cc(O)cc2C4(C)C)c(C)c1Br`, for which the MIC in the assay on Bacillus subtilis was 3.1 µg/mL; in the assay with Staphylococcus aureus, 3.1 µg/mL; in the assay with Escherichia coli it was more than 100 µg/mL; in the assay with Candida albicans, more than 100 µg/mL.

For `COc1cc2c(c(O)c1Cl)C(=O)c1c(cc3cc(O)cc(-c4c(O)cc(OC)c(Br)c4C)c3c1O)C2(C)C`, the minimum inhibitory concentration (MIC) was 1.6 µg/mL in the assay on Bacillus subtilis, 3.1 µg/mL in the assay on Staphylococcus aureus, more than 100 µg/mL in the assay on Escherichia coli and more than 100 µg/mL in the assay with Candida albicans.

For `COc1cc(O)c(-c2cc(O)cc3cc4c(c(O)c23)C(=O)c2c(O)cc(O)cc2C4(C)C)c(C)c1Cl`, the minimal inhibitory concentration (MIC) was 6.3 µg/mL in the assay on Bacillus subtilis, 6.3 µg/mL in the assay with Staphylococcus aureus, more than 100 µg/mL in the assay with Escherichia coli and more than 100 µg/mL in the assay on Candida albicans.

Take `COc1cc(C)c(-c2cc(O)cc3cc4c(c(O)c23)C(=O)c2c(cc(OC)c(Br)c2O)C4(C)C)c(O)c1`: the MIC was 3.1 µg/mL with Bacillus subtilis, 3.1 µg/mL in the assay on Staphylococcus aureus, more than 100 µg/mL with Escherichia coli and more than 100 µg/mL in the assay with Candida albicans.

`COc1cc(C)c(-c2cc(O)cc3cc4c(c(O)c23)C(=O)c2c(cc(O)c(Cl)c2O)C4(C)C)c(O)c1`: the MIC was 12.5 µg/mL in the assay on Bacillus subtilis, 12.5 µg/mL in the assay on Staphylococcus aureus, more than 100 µg/mL with Escherichia coli and more than 100 µg/mL in the assay on Candida albicans.

Turning to `COc1cc(C)c(-c2cc(O)cc3cc4c(c(O)c23)C(=O)c2c(O)cc(OC)cc2C4(C)C)c(O)c1`, the MIC with Bacillus subtilis is 1.6 µg/mL; in the assay with Staphylococcus aureus, 3.1 µg/mL; with Escherichia coli, more than 100 µg/mL; with Candida albicans it was more than 100 µg/mL.

Regarding `COc1cc(C)c(-c2cc(OC)cc3cc4c(c(O)c23)C(=O)c2c(O)cc(O)cc2C4(C)C)c(O)c1`, the MIC was 12.5 µg/mL in the assay with Bacillus subtilis, 6.3 µg/mL with Staphylococcus aureus, more than 100 µg/mL with Escherichia coli and more than 100 µg/mL in the assay with Candida albicans.

Consider `COc1cc(O)c2c(c1)C(C)(C)c1cc3cc(O)cc(-c4c(O)cc(OC)c(Cl)c4C)c3c(O)c1C2=O`, for which the MIC was 1.6 µg/mL in the assay with Bacillus subtilis, 3.1 µg/mL in the assay on Staphylococcus aureus, more than 100 µg/mL in the assay on Escherichia coli and more than 100 µg/mL in the assay with Candida albicans.

As to `COc1cc(C)c(-c2cc(O)cc3cc4c(c(O)c23)C(=O)c2c(cc(OC)c(Cl)c2O)C4(C)C)c(O)c1`, the MIC with Bacillus subtilis is 1.6 µg/mL; with Staphylococcus aureus, 3.1 µg/mL; with Escherichia coli it was more than 100 µg/mL; with Candida albicans, more than 100 µg/mL.
